Legend:
[1] = test system: NFκB DNA binding activity; assay: Electromobility shift assay, sulfasalazine-treated hepatic stellate cells; type: cell-based; conditions: day 7 HSC; 0.5, 1 and 2 mM for 24 hours
[2] = test system: experimentally induced fibrosis; assay: Recovery from carbon tetrachloride induced fibrosis in rats, sulfasalazine; type: in vivo, rat
Experimental: Adult male Sprague Dawley rats were treated twice weekly for six weeks by intraperitoneal injection of the hepatotoxin carbon tetrachloride and then allowed to recover for 24 hours prior to treatment with either vehicle control or sulfasalazine. Animals were then left to recover for either a further 16 or 72 hours.

caspase 3 activity = assay: Caspase 3 activity, sulfasalazine-treated hepatic stellate cells; type: cell-based; conditions: 0.5, 1 or 2 mM
Experimental: (§1) Treatment of activated hepatic stellate cells with Sulfasalazine (at a concentration of 0.5, 1 or 2 mM) for 24 hours induced a dose-dependent increase in apoptosis visualised by both Acridine Orange staining (30%, 45% and 55% respectively).

[3] = test system: NFκB responsive gene promoters; assay: NFκB responsive gene promoter activity; type: cell-based; conditions: 24 hours, versus untreated cells
[4] = test system: activated hepatic stellate cells; assay: Apoptosis of activated hepatic stellate cells by acridine orange, sulfasalazine; type: cell-based; conditions: 24 hours
Experimental: as §1

[5] = test system: human hepatic stellate cells; assay: Morphology of culture-activated human hepatic stellate cells (light microscopy); type: cell-based
Excerpt: (§2) Rat hepatic stellate cells (HSCs) were isolated by pronase/collagenase perfusion and purified by isopycnic density centrifugation in Opti-prep™ (Nycomed, Amersham, England) and elutriation essentially as previously described (Bahr et al., Hepatology (1999) 29:839-848). Human hepatic stellate cells were isolated from discarded resected liver via a similar protocol (Trim et al., J. Biol. Chem., (2000) 275:6657-6663). The use of human liver tissue for scientific investigation was approved by the UK South and West Local Research Ethics Committee and was subject to patient consent.
(§3) It has been shown recently that liver myofibroblasts may contribute to liver fibrogenesis and that liver myofibroblasts may have the potential to contaminate passaged hepatic stellate cell cultures (Knittel et al., Gastronenterology, (1999) 117:1205-1221). In this study, only primary cultures of hepatic stellate cells were used, which were desmin and glial fibrillary acid protein positive (markers shown to be expressed in hepatic stellate cells, but not liver myofibroblasts—Knittel et al., supra).
Cells were treated with gliotoxin dissolved in DMSO vehicle (added to medium from a 2000-fold molar concentrated stock). Control cells received DMSO vehicle only (i.e., 0.05% vol/vol). […] Protein contents of wells were determined using the Lowry assay (Lowry et al., J. Biol. Chem., (1951)193: 265-275). […]

[6] = test system: rat hepatic stellate cells; assay: Morphology and detachment of culture-activated rat hepatic stellate cells (light microscopy); type: cell-based
Excerpt: as §2, §3
Cells were treated with gliotoxin dissolved in DMSO vehicle (added to medium from a 2000-fold molar concentrated stock). Control cells received DMSO vehicle only (i.e., 0.05% vol/vol). All other additions to culture medium were made from concentrated stocks dissolved in DMSO or by direct addition to culture medium. Protein contents of wells were determined using the Lowry assay (Lowry et al., J. Biol. Chem., (1951)193: 265-275).
Culture activated rat (14 day) and human (24 day) hepatic stellate cells were treated with DMSO solvent control or 1.5 μMol/L gliotoxin. […] Hepatic stellate cells changed from a flattened fibroblastic phenotype with distinct cell-cell interfaces to a substratum detached, rounded, and blebbed morphology.

[7] = test system: rat hepatic stellate cells; assay: Low molecular weight DNA fragmentation (nucleosomal ladder) in rat hepatic stellate cells; type: cell-based
Experimental: Hepatic stellate cells cultured in 35-mm diameter dishes (Greiner) were harvested, pelleted by centrifugation and DNA fragmentation determined as outlined elsewhere (Elsharkawy et al., Hepatology (1999) 30:761-769). Propidium Iodide Flow-Activated Cell Sorting Analysis Detached cells were pelleted by centrifugation, washed in PBS, and resuspended in HYPO buffer (0.1% wt/vol) Na3Citrate and 0.1% (wt/vol) Triton™ X-100 containing […] propidium iodide and incubated for 1 hour. The cells were then analyzed by fluorescence-activated cell sorter (FACS) with a Becton Dickinson (San Jose, Calif.) FACScan instrument using a 488 nm excitation wavelength with a band pass filter set at 530 nm. Attached cells were scraped in HYPO buffer after washing cells with PBS.
The effect of gliotoxin on the cleavage of DNA to a nucleosomal ladder was examined because this phenomenon is characteristic of apoptosis. Culture activated (14-day) rat hepatic stellate cells in six well plates were treated with either 0.05% (vol/vol) DMSO for four hours or 1.5 μmol/L gliotoxin for zero hours, half an hour, one hour, two hours or four hours. At each time point, both detached and attached cells were harvested together and low molecular weight DNA (20,000 g supernatant) fragmentation determined as outlined in the materials and methods section. At least three separate experiments were performed. 1 kilobase DNA ladder (Promega) was used as a molecular weight marker.
The effect of various compounds on DNA laddering was then determined. Culture-activated (14-day) rat hepatic stellate cells in six-well plates were treated with:
After fours hours of treatment, DNA fragmentation was determined.
Culture activated (14 day) rat hepatic stellate cells in six well plates were treated with: • (a) 0.05% (vol/vol) DMSO; • (b) 1.5 μmol/L gliotoxin; • (c) 1.5 μmol/L gliotoxin with 100 μmol/L tamoxifen; • (d) 1.5 μmol/L gliotoxin with […] actinomycin d; • (e) 1.5 μmol/L gliotoxin with 10 μmol/L cycloheximide; • (f) 1.5 μmol/L gliotoxin with 10 μmol/L cyclosporin; • (g) 1.5 μmol/L gliotoxin with […] m-iodobenzylguanidine; • (h) 1.5 μmol/L gliotoxin with 50 μmol/L quin-2-am; • (i) 50 μmol/L guin-2-am alone; • (j) 250 μmol/L m-iodobenzylguanidine; • (k) 10 μmol/L cyclosporin; • (l) 10 μmol/L cycloheximide; • (m) 1 μg/ml actinomycin d; or • (n) 100 μmol/L tamoxifen.
After four hours of treatment, DNA fragmentation was determined as outlined in Materials and Methods.

hepatic stellate cells = assay: Nerve growth factor induced apoptosis of hepatic stellate cells; type: cell-based; conditions: NGF 100 ng/ml, absolute serum deprivation
Experimental: Apoptosis of hepatic stellate cells was induced by absolute serum deprivation, cycloheximide treatment (Issa et al., Gut (2001) 48: S48-S57), or exposure to nerve growth factor as previously described (Trim et al., Am. J. Pathol., (2000) 156, 1235-1243). Hepatic stellate cells were cultured in 24-well tissue culture plates. Rat and human hepatic stellate cells were exposed to proapoptotic stimuli with and without recombinant TIMP-1 (Biogenesis, Poole, UK) and other manipulations as detailed below. Following a 4 hour incubation at 37° C., nuclear morphology was assessed by adding acridine orange to each well (final concentration 1 μg/ml) and observing the cells under blue fluorescence. The total number of apoptotic bodies was counted, and any apoptotic bodies floating in the supernatant were included by racking up the objective lens. The total number of cells per field was counted, and an apoptotic index was calculated. Each condition was performed in duplicate, and three high power fields were counted for each well. […] To examine for autocrine effects, hepatic stellate cells were incubated for 18 hours with azide-free polyclonal neutralizing antibodies to TIMP-1 and a nonimmune IgG control (Santa Cruz Biotechnology, Inc., Santa Cruz, Calif.), and responses were assessed by acridine orange staining and counting. […]

MMP-3 = MMP-3 (Homo sapiens, UniProt P08254); conditions: T2G versus wild type; cited from earlier work
Chain of MMP-3 (P08254 100-477, species assumed): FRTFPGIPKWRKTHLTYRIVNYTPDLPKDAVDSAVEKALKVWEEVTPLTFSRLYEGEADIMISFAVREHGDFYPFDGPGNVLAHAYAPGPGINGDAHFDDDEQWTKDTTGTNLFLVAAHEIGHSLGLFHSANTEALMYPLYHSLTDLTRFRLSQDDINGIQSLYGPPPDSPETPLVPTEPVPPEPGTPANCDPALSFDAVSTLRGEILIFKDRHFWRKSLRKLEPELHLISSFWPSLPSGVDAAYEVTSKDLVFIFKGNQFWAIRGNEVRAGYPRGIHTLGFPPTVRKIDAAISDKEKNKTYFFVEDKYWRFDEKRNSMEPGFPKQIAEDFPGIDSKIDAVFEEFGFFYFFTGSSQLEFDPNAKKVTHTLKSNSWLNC

[8] = test system: human hepatic stellate cells; assay: Hepatic stellate cell apoptosis by acridine orange staining and counting (cycloheximide or serum deprivation), human cells; type: cell-based; conditions: human HSC; protein at 142.5 ng/ml
Experimental: (§4) Human hepatic stellate cells were extracted from the margins of normal human liver resected for colonic metastatic disease as previously described (Iredale et al., Clin. Sci., (1995) 89: 75-81). Rat hepatic stellate cells were extracted from normal rat liver by Pronase and collagenase digestion and purified by centrifugal elutriation as described (Arthur et al., J. Clin. Invest., (1989) 84:1076-1085). Extracted hepatic stellate cells were cultured on plastic until they were activated to a myofibroblastic phenotype after 7 to 10 days. Human and rat hepatic stellate cells were used for experiments after activation in primary culture or before fourth passage. Cells were cultured in Dulbecco's modified Eagle's medium in the presence of 16% fetal calf serum and antibiotics.
Apoptosis of hepatic stellate cells was induced by absolute serum deprivation, cycloheximide treatment (Issa et al., Gut (2001) 48: S48-S57), or exposure to nerve growth factor as previously described (Trim et al., Am. J. Pathol., (2000) 156, 1235-1243). Hepatic stellate cells were cultured in 24-well tissue culture plates. […] Following a 4 hour incubation at 37° C., nuclear morphology was assessed by adding acridine orange to each well (final concentration 1 μg/ml) and observing the cells under blue fluorescence. The total number of apoptotic bodies was counted, and any apoptotic bodies floating in the supernatant were included by racking up the objective lens. The total number of cells per field was counted, and an apoptotic index was calculated. Each condition was performed in duplicate, and three high power fields were counted for each well. […] To examine for autocrine effects, hepatic stellate cells were incubated for 18 hours with azide-free polyclonal neutralizing antibodies to TIMP-1 and a nonimmune IgG control (Santa Cruz Biotechnology, Inc., Santa Cruz, Calif.), and responses were assessed by acridine orange staining and counting.
Apoptosis was assessed by acridine orange staining. […]

[9] = test system: caspase-3 activity in hepatic stellate cells; assay: Caspase-3 activity in cycloheximide-treated hepatic stellate cells; type: cell-based; conditions: wild type TIMP-1 or T2G mutant N-TIMP-1
Experimental: Apoptosis was quantified by a colorimetric assay for caspase-3 activity (Promega) according to the manufacturer's instructions.
Caspase-3 is a central caspase in the proapoptotic cascade (Hengartner, Nature (2000) 407, 770-776) and can be used as an alternative assay to assess apoptosis. Hepatic stellate cells were cultured in 50 μM cycloheximide with TIMP-1 at a concentration of 0, 1, 10, or 100 ng/ml. Controls where cells were incubated with either the caspase 3 inhibitor benzyloxycarbonyl-Val-Ala-Asp-fluoromethylketone or serum alone were also performed. Data are expressed as mean ±S.E. and are presented as percentage of control given the arbitrary value of 100%. * indicates p<0.001; n=3. […] Although the mean caspase-3 activity of the cells treated with 10 ng/ml TIMP-1 was slightly lower than that treated with 100 ng/ml of TIMP-1, this was not statistically significant (p=0.67 by Student's t test).

[10] = test system: rat hepatic stellate cells; assay: Hepatic stellate cell apoptosis by acridine orange staining and counting (cycloheximide or serum deprivation), rat cells; type: cell-based; conditions: rat HSC; protein at 142.5 ng/ml
Experimental: as §4
Apoptosis of hepatic stellate cells was induced by absolute serum deprivation, cycloheximide treatment (Issa et al., Gut (2001) 48: S48-S57), or exposure to nerve growth factor as previously described (Trim et al., Am. J. Pathol., (2000) 156, 1235-1243). Hepatic stellate cells were cultured in 24-well tissue culture plates. Rat and human hepatic stellate cells were exposed to proapoptotic stimuli with and without recombinant TIMP-1 (Biogenesis, Poole, UK) and other manipulations as detailed below. Following a 4 hour incubation at 37° C., nuclear morphology was assessed by adding acridine orange to each well (final concentration 1 μg/ml) and observing the cells under blue fluorescence. The total number of apoptotic bodies was counted, and any apoptotic bodies floating in the supernatant were included by racking up the objective lens. The total number of cells per field was counted, and an apoptotic index was calculated. Each condition was performed in duplicate, and three high power fields were counted for each well. […] To examine for autocrine effects, hepatic stellate cells were incubated for 18 hours with azide-free polyclonal neutralizing antibodies to TIMP-1 and a nonimmune IgG control (Santa Cruz Biotechnology, Inc., Santa Cruz, Calif.), and responses were assessed by acridine orange staining and counting.
Apoptosis was assessed by acridine orange staining. […] A normal cell lies adjacent to the apoptotic body. This technique was used to determine the percentage of apoptotic hepatic stellate cells following exposure to cyclohexamide in the presence or absence of TIMP-1. Hepatic stellate cells were exposed to 50 μM cyclohexamide and 0, 1, 10, 100 or 200 ng/ml of TIMP-1. Cells treated with serum alone were used as controls. […] Bovine serum albumin, used as a carrier for the TIMP-1 had no antiapoptotic effect.

Molecule: O=C(O)c1cc(/N=N/c2ccc(S(=O)(=O)Nc3ccccn3)cc2)ccc1O [Sulfasalazine]
- NFκB DNA binding activity [1]: dose dependently inhibited NFκB DNA binding activity
- collagen deposition (fibrosis) versus control livers ([2]; six weeks CCl4, 16 hours recovery): no significant difference in collagen deposition
- collagen versus control livers ([2]; six weeks CCl4, 72 hours recovery): significantly less collagen
- fibrosis score (1-4; 1 no fibrosis, 4 cirrhosis) ([2]; six weeks CCl4, 72 hours recovery, control livers 3): 1.5
- numbers of activated hepatic stellate cells versus control livers ([2]; six weeks CCl4, treatment 24 hours later, 16 hours recovery): large reduction in numbers of activated hepatic stellate cells
- caspase 3 activity (caspase 3 activity): increased caspase 3 activity in a dose-dependent manner
- activity of NFκB responsive gene promoters (PGJ21 (4xNFκB), IL6 and IκBα) [3]: repressed the activity of three NFκB responsive gene promoters
- activity of control 7×AP1 promoter [3]: but not a control 7×AP1 promoter
- apoptosis by Acridine Orange staining ([4]; 0.5 mM): 30%
- apoptosis by Acridine Orange staining ([4]; 1 mM): 45%
- apoptosis by Acridine Orange staining ([4]; 2 mM): 55%

Molecule: CS[C@]1(CO)C(=O)N2[C@H]3C(=CC=C[C@@H]3O)C[C@@]2(SC)C(=O)N1C [mt-glio, bis-dethio-bis(methylthio)-gliotoxin]
- morphologic alterations ([5]; culture activated (24 day) human HSC, 1.5 μmol/L): had no effect on the morphology
- morphologic alterations ([6]; culture activated (14 day) rat HSC, 1.5 μmol/L): had no effect on the morphology
- cleavage of DNA to a nucleosomal ladder ([7]; rat HSC, 1.5 μmol/L, up to four hours): did not result in the cleavage of DNA to a nucleosomal ladder

Molecule: S=C(S)N1CCCC1 [pyrrolidine dithiocarbamate]
- effect on morphologic effects of gliotoxin ([5]; human HSC, cotreatment with gliotoxin): blocked the morphologic effects of gliotoxin
- effect on morphologic alterations / detachment caused by gliotoxin ([6]; rat HSC, with 1.5 μmol/L gliotoxin, Z-VAD-FMK 100 μmol/L, PDTC 300 μmol/L, tamoxifen 100 μmol/L, m-IBG 250 (mmol/L in the source), quin-2-am 50 μmol/L): blocked the morphologic effects of gliotoxin
- effect on gliotoxin-induced cleavage of DNA to a nucleosomal ladder ([7]; with 1.5 μmol/L gliotoxin, four hours, PDTC 300 μmol/L, tamoxifen 100 μmol/L, m-IBG 250 (mmol/L in the source), cyclosporin 10 μmol/L, quin-2-am 50 μmol/L): blocks the cleavage of DNA to a nucleosomal ladder

Molecule: NGF: nerve growth factor, ligand of p75 on hepatic stellate cells
- apoptosis in hepatic stellate cells versus BSA carrier alone (hepatic stellate cells): induced significantly more apoptosis

Molecule: T2G mutant N-TIMP-1: mutated nonfunctional TIMP-1, threonine to glycine at amino acid position 2, no MMP inhibitory activity
- factor by which the mutation changes the inhibition constant of TIMP-1 for MMP-3 (MMP-3): over 1000
- apoptosis induced by cycloheximide (acridine orange) [8]: had no inhibitory effect
- caspase-3 activity in cycloheximide-treated hepatic stellate cells [9]: no effect was observed
- apoptosis induced by cycloheximide (acridine orange) [10]: had no inhibitory effect
